The results in this text go back to PMC11076738, “A rapid and simple non-radioactive assay for measuring uptake by solute carrier transporters” (Frontiers in Pharmacology, 2024).

Type in all cases: cell-based
In one experiment the target is T1, NTCP (Homo sapiens, UniProt Q14973).
T1 construct: His-tag; expressed in transfected cells
T1 sequence (Q14973 1-349): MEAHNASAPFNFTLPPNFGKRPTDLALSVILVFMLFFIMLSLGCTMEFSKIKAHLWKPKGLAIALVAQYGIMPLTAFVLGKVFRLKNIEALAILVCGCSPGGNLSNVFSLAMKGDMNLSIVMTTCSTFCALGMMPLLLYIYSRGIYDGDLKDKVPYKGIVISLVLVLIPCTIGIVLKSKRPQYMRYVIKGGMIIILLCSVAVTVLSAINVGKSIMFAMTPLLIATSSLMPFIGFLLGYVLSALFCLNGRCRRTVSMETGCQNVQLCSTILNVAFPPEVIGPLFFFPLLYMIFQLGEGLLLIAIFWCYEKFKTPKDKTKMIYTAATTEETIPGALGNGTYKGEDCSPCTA
The experiment is described as follows: TCA-d4 uptake assay (LC-MS/MS) in HepG2 NTCP cells.

The test system of another experiment is BMP reporter gene. The experiment in a line: BMP reporter gene assay (Id1-Luc) in HEK293T cells. Particulars: HEK293T cells with Id1-Luc reporter; 3 μM, 12 h. The protocol: HEK293T cells transfected with Id1-Luc reporter construct were seeded into a 96-well plate (190 μL/well of 3,000 cells/mL)) and then treated with 3 μM JH7 for 12 h. FK506 and DMSO were used as positive and negative controls, respectively. Cells were removed 100 μL DMEM and added in 40 μL Bright-Glo™ Luciferase reagent (per well) and placed on a plate-shaker for 10 min. Bright-Glo™ Luciferase Assay was performed with Ensight plate reader.

Experiment [1] addresses T2, LAT1 (Homo sapiens, UniProt Q01650).
T2 construct: endogenous in cells; host or cells: LS174T (wild type)
The experiment in a line: 3H-leucine uptake assay in LS174T cells. Particulars: read-out: IC50, inhibition of 3H-leucine uptake, radioactive method, mean ± s.d., n = 3. On the procedure:
The inhibitory activity of JPH203 on LAT1 was analyzed by measuring the cell uptake of ^3H-leucine as previously described with minor modifications ([Oda et al., 2010]). Similar to leucine-d3 uptake assay, LS174T cells were washed twice and incubated in Na^+-free uptake medium (10 mM Tris-HCl, 150 mM KCl, 5 mM MgCl2, 1 mM EGTA, pH 7.4) for 15 min. Cells were added with JPH203 or DMSO and incubated for another 15 min before adding ^3H-leucine. After 15 min incubation, cells were washed three times and lysed with 0.2 N NaOH plus 0.2% SDS. The cell lysate was transferred to a new tube containing 1 mL of optiphase supermix. ^3H-leucine uptake was quantified with a scintillation counter.

Experiment [2] deals with T2, LAT1. The experiment in a line: leucine-d3 uptake assay (LC-MS/MS) in LS174T cells. Particulars: 5 μM leucine-d3, 15 min uptake, mean ± s.d., n = 3, read-out: IC50, inhibition of leucine-d3 uptake. On the procedure:
LS174T cells were seeded into 12-well plates at a density of 1×10^6/well. After a 48 h incubation, cells were carefully washed with prewarmed Na^+-free uptake buffer (10 mM Tris-HCl, 150 mM KCl, 5 mM MgCl2, 1 mM EGTA, pH 7.4) twice and incubated in 0.5 mL of Na^+-free uptake buffer at 37 °C for 15 min. Cells were washed with Na^+-free uptake buffer once again and incubated with different concentrations of JPH203 or DMSO at 37 °C for 15 min. Cells were then allowed to take up 5 μM of leucine-d3 at 37 °C for another 15 min. After incubation, cells were washed with Na^+-free uptake buffer three times and lysed with 200 μL of acetonitrile. The cell lysate was transferred to a new tube and the supernatant was collected by centrifugation at 12,000 rpm for 10 min at 4°C. Leucine-d3 uptake was quantified with LC-MS/MS.
Prepared samples were separated on an Agilent 1290 II system (CA, United States) equipped with an XSelect HSS T3 C18 reverse phase column (2.1 × 150 mm, 3.5 μm). […]
Targeted analytes were monitored in a negative multiple-reaction monitoring (MRM) mode on an Agilent 6495C triple quadrupole […] system (CA, United States). […] Leucine-d3 and TCA-d4 were monitored in negative ion mode with MRM ion pairs at 135.1 > 89.2 (collision energy: 14 eV) and 518.0 > 124.0 (collision energy: 65 eV), respectively. […]

T2 sequence (Q01650 whole entry): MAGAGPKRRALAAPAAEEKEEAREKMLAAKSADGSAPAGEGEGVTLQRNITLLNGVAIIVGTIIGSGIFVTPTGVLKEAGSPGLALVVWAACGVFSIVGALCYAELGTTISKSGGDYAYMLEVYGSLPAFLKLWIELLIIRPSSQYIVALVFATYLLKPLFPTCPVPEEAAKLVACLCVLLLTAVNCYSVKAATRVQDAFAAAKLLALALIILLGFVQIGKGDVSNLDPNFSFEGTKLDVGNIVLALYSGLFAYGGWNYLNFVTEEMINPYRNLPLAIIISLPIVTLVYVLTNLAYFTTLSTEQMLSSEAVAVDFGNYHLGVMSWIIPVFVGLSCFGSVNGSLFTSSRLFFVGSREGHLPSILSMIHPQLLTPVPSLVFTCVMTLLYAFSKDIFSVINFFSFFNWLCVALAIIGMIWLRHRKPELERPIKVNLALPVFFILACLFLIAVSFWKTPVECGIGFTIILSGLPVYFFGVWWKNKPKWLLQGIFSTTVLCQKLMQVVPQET
T2 sequence (P08195 102-630 partner): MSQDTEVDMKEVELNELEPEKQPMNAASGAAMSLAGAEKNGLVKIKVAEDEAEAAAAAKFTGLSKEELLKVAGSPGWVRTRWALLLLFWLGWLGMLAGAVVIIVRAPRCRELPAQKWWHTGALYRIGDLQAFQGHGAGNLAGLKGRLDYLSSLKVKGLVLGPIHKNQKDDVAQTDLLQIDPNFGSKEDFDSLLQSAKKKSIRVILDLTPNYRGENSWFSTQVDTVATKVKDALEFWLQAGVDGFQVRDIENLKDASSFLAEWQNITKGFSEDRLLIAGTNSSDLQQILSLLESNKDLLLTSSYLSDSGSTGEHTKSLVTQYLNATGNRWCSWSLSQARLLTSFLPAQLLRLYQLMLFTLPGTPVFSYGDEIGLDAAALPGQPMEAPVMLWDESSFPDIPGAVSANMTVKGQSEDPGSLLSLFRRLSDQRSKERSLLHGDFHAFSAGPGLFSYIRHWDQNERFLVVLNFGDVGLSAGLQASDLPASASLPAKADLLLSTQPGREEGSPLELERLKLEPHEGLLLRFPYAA
Description for NTCP: HepG2 NTCP cells were seeded into 12-well plates at a density of 2×10^5/well. After a 48 h incubation, cells were carefully washed with uptake buffer (10 mM HEPES, 100 mM NaCl, 2 mM KCl, 1 mM MgCl2, 1 mM CaCl2, pH 7.4) twice and incubated in 0.5 mL of uptake buffer for 15 min at 37 °C. […] Cells were then allowed to take up 5 μM of TCA-d4 at 37 °C for another 15 min. After incubation, cells were washed with uptake buffer three times and lysed with 200 μL of ethanol. The cell lysate was transferred to a new tube and the supernatant was collected by centrifugation at 12,000 rpm for 10 min at 4°C. TCA-d4 uptake was quantified with LC-MS/MS.
Prepared samples were separated on an Agilent 1290 II system (CA, United States) equipped with an XSelect HSS T3 C18 reverse phase column (2.1 × 150 mm, 3.5 μm). […] To separate TCA-d4, the mobile phase consisted of solution A (5 mM ammonium formate) and solution B (methanol). […]
Targeted analytes were monitored in a negative multiple-reaction monitoring (MRM) mode on an Agilent 6495C triple quadrupole LS/MS system (CA, United States). […] Leucine-d3 and TCA-d4 were monitored in negative ion mode with MRM ion pairs at 135.1 > 89.2 (collision energy: 14 eV) and 518.0 > 124.0 (collision energy: 65 eV), respectively. […]

Consider `CCCC[C@H]1C(=O)N[C@@H](Cc2ccc(F)cc2)C(=O)N(C)CC/C=C/C(=O)OCC(C)(C)C(=O)C(=O)N2CCCC[C@H]2C(=O)O[C@H](CCc2ccc(OC)c(OC)c2)c2cccc(c2)OCC(=O)N(C)CC(=O)N[C@@H](Cc2cccs2)C(=O)N1C` [JH7], for which, at NTCP (5 μM TCA-d4, 15 min uptake, mean ± s.d., n = 3, read-out: IC50, inhibition of TCA-d4 uptake), the IC50 amounted to 49.3 ± 0.8 nM. Further, the “TCA-d4 uptake (% of control)” value at NTCP (rapafucins at a final concentration of 2 μM) is on record as 19.35 % of control. The “activation of BMP reporter gene” value in the experiment with BMP reporter gene is “did not activate”.
`Nc1cc(COc2c(Cl)cc(C[C@H](N)C(=O)O)cc2Cl)c2oc(-c3ccccc3)nc2c1` [JPH203]: the half-maximal inhibitory concentration (IC50) on LAT1 [1] was determined as 960 ± 90 nM; on LAT1 [2] it was 1110 ± 210 nM.
